Experimental data from patent publication US20150216171A1, “HERBICIDALLY ACTIVE BICYCLOARYL CARBOXYLIC ACID AMIDES” (BAYER CROPSCIENCE AG, priority 2012, published 2015).

Columns and labels:
Type in all cases: in vivo
wheat [1] = assay: Pre-emergence test, damage to crop plants; settings: application rate 320 g/ha, scored visually after 3 weeks
From the text: (§1) Seeds of monocotyledonous and dicotyledonous weed plants and crop plants are laid out in wood-fiber pots in sandy loam and covered with soil. The inventive compounds, formulated in the form of wettable powders (WP) or as emulsion concentrates (EC), are then applied to the surface of the soil cover in the form of an aqueous suspension or emulsion at a water application rate equating to 600 to 800 l/ha, with addition of 0.2% wetting agent. After the treatment, the pots are placed in a greenhouse and kept under good growth conditions for the test plants. The damage to the trial plants is scored visually after a test period of 3 weeks by comparison with untreated controls (herbicidal activity in percent (%): 100% efficacy=the plants have died, 0% efficacy=like control plants). In this test, for example, compounds no. […] Compounds no. […] Compounds no.

wheat [2] = assay: Post-emergence test, damage to crop plants; settings: application rate 80 g/ha, scored visually after about 3 weeks
Method: (§2) Seeds of monocotyledonous and dicotyledonous weed and crop plants are laid out in sandy loam in wood-fiber pots, covered with soil and cultivated in a greenhouse under good growth conditions. 2 to 3 weeks after sowing, the test plants are treated at the one-leaf stage. The inventive compounds, formulated in the form of wettable powders (WP) or as emulsion concentrates (EC), are then sprayed as aqueous suspension or emulsion at a water application rate equating to 600 to 800 I/ha with the addition of 0.2% of wetting agent onto the green parts of the plants. After the trial plants have been left to stand in a greenhouse under optimal growth conditions for about 3 weeks, the efficacy of the formulations is scored visually in comparison to untreated controls (herbicidal action in percent (%): 100% efficacy=the plants have died, 0% efficacy=like control plants). In this test, for example, compounds no. […] Compounds no. […] Compounds no.

corn [3] = assay: Post-emergence test, damage to crop plants; settings: application rate 80 g/ha, scored visually after about 3 weeks
Method: as §2

corn [4] = assay: Pre-emergence test, damage to crop plants; settings: application rate 320 g/ha, scored visually after 3 weeks
From the text: as §1

rice = assay: Post-emergence test, damage to crop plants; settings: application rate 80 g/ha, scored visually after about 3 weeks
Method: as §2

Row | Compound | damage in wheat (wheat [1]) | damage in wheat (wheat [2]) | damage in corn (corn [3]) | damage in corn (corn [4]) | damage in rice (rice)
1 | Cc1c(C(=O)Nc2nnnn2C)ccc2c1S(=O)(=O)C=C2 [7-1] | did not cause any damage at all |  |  |  | 
2 | CC1=Cc2c(ccc(C(=O)Nc3nnnn3Cc3ccc(Cl)cc3)c2Cl)S1(=O)=O [59-51] |  | did not cause any damage at all | did not cause any damage at all |  | 
3 | CC1=Cc2c(ccc(C(=O)Nc3nonc3-n3cncn3)c2Cl)S1(=O)=O [60-115] | did not cause any damage at all |  |  | did not cause any damage at all | 
4 | Cc1c(C(=O)Nc2nnnn2C)ccc2c1S(=O)(=O)CC=C2 [67-1] |  | did not cause any damage at all | did not cause any damage at all |  | 
5 | CC1=Cc2c(ccc(C(=O)Nc3nonc3C)c2Cl)S1(=O)=O [17-19] | did not cause any damage at all | did not cause any damage at all |  | did not cause any damage at all | did not cause any damage at all
6 | Cc1c(C(=O)Nc2nnnn2C)ccc2c1SCC=C2 [61-1] | did not cause any damage at all | did not cause any damage at all |  |  | did not cause any damage at all
